Measurements as given in patent US9492471B2, “Methods of treating a disease or disorder associated with Bruton'S Tyrosine Kinase” (Celgene Avilomics Research, Inc., priority 2013, dated 2016).
Read-outs that look alike come from different tables or passages of the source.

Legend:
Experiment in all cases: HotSpot kinase profiling
Assay type in all cases: biochemical
CK1a1 = target: T1, CK1a1 (Homo sapiens, UniProt P48729)
T1 construct: purchased Reaction Biology Corp
Method: (§1) The binding assay system for profiling kinase activity were based upon HotSpot technology (Reaction Biology Corp.; Malvern, Pa., USA) and utilized radio-isotope-based P81 filtration. […] Substrates for the various kinases tested against Compound 2 (substrate information available on the Reaction Biology Corp. website) were prepared fresh daily in Reaction Buffer. Any required cofactors were then added to the substrate solution. The identification and selection of the appropriate cofactor for each kinase is within the ability of a person skilled in the art. See, for example, Handbook of Assay Development in Drug Discovery, Ed. Lisa K. Minor, 2006: CRC Press, Boca Raton, Fla.; Gao et al., “A broad activity screen in support of a chemogenomic map for kinase signalling research and drug discovery,” Biochem J. 2013, 451(2): 313-28; and Eglen et al., “Drug discovery and the human kinome: Recent trends,” Pharmacology & Therapeutics 2011, 130(2): 144-156. The kinase was then added to the substrate solution and gently mixed. […] This was followed by incubation at room temperature for 2 h. The reaction was terminated and any unreacted phosphate was washed away using 0.1% phosphoric acid prior to detection utilizing a proprietary technology. […] DMSO was used as the negative control.
(§2) Percent inhibition was expressed as an average where the assay was performed more than once, e.g., in duplicate.

PAK4 = target: T2, PAK4 (Homo sapiens, UniProt O96013)
T2 construct: purchased Reaction Biology Corp
Method: as §1, §2

FGFR2 = target: T3, FGFR2 (Homo sapiens, UniProt P21802)
T3 construct: purchased Reaction Biology Corp
Method: as §1, §2

WNK1 = target: T4, WNK1 (Homo sapiens, UniProt Q9H4A3)
T4 construct: purchased Reaction Biology Corp
Method: as §1, §2

DYRK1B = target: T5, DYRK1B (Homo sapiens, UniProt Q9Y463)
T5 construct: purchased Reaction Biology Corp
Method: as §1, §2

ULK2 = target: T6, ULK2 (Homo sapiens, UniProt Q8IYT8)
T6 construct: purchased Reaction Biology Corp
T6 sequence (Q8IYT8 1-1036): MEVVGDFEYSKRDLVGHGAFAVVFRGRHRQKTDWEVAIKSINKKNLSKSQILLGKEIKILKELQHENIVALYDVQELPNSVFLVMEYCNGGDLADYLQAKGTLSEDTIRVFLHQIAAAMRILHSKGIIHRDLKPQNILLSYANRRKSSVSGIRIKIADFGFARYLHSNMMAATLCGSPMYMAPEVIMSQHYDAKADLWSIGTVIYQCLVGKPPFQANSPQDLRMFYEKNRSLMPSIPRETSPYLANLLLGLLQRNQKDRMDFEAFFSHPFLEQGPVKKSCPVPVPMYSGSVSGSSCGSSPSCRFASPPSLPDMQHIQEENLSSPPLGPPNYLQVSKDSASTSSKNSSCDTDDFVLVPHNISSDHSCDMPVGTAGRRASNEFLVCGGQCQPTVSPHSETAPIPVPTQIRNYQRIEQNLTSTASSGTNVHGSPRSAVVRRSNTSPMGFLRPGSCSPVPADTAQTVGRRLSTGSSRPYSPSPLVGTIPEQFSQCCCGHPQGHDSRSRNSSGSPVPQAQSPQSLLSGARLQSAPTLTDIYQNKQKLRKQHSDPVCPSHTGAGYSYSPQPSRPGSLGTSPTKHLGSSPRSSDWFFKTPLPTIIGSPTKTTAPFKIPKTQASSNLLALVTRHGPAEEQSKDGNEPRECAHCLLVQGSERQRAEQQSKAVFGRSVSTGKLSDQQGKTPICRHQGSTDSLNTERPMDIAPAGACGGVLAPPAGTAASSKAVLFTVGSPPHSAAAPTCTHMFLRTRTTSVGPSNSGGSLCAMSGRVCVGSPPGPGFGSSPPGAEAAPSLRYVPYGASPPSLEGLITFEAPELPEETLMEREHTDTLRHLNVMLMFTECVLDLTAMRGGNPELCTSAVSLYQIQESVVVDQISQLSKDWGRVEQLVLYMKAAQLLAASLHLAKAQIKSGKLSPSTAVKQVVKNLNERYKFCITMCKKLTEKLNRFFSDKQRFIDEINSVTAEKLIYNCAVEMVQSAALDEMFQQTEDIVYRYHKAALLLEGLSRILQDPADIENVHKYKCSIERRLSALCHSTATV
Method: as §1, §2

ERK2/MAPK1 = target: T7, ERK2/MAPK1 (Homo sapiens, UniProt P28482)
T7 construct: purchased Reaction Biology Corp
Method: as §1, §2

CDK1/cyclin E = target: T8, CDK1/cyclin E (Homo sapiens, UniProt P06493)
T8 construct: purchased Reaction Biology Corp
Method: as §1, §2

FYN = target: T9, FYN (Homo sapiens, UniProt P06241)
T9 construct: purchased Reaction Biology Corp
Method: as §1, §2

TYK2 = target: T10, TYK2 (Homo sapiens, UniProt P29597)
T10 construct: purchased Reaction Biology Corp
Method: as §1, §2

IR = target: T11, IR (Homo sapiens, UniProt P06213)
T11 construct: purchased Reaction Biology Corp
Method: as §1, §2

[1] = read-out: % Enzyme Activity (relative to DMSO controls) Run 1
[2] = read-out: % Enzyme Activity (relative to DMSO controls) Run 2

T5 sequence (Q9Y463 whole entry): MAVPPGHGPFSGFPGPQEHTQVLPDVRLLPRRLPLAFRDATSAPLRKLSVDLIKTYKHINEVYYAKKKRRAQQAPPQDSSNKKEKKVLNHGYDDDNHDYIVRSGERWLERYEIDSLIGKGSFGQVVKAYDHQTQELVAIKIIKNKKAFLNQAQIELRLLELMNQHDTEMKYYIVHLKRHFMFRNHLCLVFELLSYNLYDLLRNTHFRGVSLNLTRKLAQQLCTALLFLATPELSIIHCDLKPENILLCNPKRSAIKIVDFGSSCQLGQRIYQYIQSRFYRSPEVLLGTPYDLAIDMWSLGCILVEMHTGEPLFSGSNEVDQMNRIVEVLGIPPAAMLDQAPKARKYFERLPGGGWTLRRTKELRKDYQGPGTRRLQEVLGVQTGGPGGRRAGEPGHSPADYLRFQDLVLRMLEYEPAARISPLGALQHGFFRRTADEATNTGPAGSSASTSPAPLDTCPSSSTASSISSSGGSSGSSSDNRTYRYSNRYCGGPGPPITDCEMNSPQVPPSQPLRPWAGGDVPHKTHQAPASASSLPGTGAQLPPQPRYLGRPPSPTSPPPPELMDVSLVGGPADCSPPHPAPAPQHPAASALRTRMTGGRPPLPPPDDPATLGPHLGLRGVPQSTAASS
T1 sequence (P48729 whole entry): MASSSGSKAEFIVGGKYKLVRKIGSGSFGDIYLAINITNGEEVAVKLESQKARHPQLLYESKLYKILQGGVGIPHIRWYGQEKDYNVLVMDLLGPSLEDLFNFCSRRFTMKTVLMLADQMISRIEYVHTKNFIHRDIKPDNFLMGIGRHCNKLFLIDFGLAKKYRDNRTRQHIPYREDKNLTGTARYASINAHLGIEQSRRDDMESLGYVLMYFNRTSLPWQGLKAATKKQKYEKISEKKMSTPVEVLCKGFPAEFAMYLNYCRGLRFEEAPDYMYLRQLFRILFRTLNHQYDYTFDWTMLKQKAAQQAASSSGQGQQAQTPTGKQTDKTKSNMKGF
T2 sequence (O96013 whole entry): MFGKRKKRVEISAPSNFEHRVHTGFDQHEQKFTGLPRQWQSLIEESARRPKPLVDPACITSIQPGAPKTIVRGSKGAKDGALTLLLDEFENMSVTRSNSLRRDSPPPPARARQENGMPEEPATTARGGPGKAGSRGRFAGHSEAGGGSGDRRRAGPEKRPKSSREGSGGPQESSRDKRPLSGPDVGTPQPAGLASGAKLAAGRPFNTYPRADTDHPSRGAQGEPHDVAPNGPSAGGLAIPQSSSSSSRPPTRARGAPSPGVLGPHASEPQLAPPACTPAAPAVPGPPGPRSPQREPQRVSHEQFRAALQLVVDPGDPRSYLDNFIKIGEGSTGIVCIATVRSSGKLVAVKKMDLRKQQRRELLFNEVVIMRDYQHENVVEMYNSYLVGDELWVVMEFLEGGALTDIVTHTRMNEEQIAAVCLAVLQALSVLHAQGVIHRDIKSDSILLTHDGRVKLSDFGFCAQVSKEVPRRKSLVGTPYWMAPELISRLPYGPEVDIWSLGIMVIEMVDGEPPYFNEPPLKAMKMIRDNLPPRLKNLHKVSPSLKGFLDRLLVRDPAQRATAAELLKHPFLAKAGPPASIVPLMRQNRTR
T3 sequence (P21802 22-821): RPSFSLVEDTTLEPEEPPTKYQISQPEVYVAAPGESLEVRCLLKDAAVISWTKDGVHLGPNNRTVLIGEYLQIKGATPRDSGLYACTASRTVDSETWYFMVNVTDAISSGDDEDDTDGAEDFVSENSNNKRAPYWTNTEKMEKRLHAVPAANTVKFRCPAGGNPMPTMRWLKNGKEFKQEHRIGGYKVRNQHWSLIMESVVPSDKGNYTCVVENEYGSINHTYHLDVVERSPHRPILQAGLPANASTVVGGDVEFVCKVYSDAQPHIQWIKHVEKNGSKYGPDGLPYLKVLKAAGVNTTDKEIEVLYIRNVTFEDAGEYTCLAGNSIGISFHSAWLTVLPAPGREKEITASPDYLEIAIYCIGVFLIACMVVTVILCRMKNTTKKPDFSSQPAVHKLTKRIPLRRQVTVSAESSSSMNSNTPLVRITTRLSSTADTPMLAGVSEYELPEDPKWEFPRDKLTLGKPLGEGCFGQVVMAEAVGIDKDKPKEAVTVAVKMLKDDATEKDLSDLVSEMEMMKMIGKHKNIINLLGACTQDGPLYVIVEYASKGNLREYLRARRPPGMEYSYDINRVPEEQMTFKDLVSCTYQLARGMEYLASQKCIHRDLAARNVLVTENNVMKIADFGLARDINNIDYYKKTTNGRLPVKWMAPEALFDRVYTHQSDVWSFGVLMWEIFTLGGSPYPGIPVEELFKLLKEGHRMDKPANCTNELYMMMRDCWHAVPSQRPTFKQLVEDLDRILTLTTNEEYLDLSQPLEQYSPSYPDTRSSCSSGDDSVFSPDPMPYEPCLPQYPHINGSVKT
T4 sequence (Q9H4A3 whole entry): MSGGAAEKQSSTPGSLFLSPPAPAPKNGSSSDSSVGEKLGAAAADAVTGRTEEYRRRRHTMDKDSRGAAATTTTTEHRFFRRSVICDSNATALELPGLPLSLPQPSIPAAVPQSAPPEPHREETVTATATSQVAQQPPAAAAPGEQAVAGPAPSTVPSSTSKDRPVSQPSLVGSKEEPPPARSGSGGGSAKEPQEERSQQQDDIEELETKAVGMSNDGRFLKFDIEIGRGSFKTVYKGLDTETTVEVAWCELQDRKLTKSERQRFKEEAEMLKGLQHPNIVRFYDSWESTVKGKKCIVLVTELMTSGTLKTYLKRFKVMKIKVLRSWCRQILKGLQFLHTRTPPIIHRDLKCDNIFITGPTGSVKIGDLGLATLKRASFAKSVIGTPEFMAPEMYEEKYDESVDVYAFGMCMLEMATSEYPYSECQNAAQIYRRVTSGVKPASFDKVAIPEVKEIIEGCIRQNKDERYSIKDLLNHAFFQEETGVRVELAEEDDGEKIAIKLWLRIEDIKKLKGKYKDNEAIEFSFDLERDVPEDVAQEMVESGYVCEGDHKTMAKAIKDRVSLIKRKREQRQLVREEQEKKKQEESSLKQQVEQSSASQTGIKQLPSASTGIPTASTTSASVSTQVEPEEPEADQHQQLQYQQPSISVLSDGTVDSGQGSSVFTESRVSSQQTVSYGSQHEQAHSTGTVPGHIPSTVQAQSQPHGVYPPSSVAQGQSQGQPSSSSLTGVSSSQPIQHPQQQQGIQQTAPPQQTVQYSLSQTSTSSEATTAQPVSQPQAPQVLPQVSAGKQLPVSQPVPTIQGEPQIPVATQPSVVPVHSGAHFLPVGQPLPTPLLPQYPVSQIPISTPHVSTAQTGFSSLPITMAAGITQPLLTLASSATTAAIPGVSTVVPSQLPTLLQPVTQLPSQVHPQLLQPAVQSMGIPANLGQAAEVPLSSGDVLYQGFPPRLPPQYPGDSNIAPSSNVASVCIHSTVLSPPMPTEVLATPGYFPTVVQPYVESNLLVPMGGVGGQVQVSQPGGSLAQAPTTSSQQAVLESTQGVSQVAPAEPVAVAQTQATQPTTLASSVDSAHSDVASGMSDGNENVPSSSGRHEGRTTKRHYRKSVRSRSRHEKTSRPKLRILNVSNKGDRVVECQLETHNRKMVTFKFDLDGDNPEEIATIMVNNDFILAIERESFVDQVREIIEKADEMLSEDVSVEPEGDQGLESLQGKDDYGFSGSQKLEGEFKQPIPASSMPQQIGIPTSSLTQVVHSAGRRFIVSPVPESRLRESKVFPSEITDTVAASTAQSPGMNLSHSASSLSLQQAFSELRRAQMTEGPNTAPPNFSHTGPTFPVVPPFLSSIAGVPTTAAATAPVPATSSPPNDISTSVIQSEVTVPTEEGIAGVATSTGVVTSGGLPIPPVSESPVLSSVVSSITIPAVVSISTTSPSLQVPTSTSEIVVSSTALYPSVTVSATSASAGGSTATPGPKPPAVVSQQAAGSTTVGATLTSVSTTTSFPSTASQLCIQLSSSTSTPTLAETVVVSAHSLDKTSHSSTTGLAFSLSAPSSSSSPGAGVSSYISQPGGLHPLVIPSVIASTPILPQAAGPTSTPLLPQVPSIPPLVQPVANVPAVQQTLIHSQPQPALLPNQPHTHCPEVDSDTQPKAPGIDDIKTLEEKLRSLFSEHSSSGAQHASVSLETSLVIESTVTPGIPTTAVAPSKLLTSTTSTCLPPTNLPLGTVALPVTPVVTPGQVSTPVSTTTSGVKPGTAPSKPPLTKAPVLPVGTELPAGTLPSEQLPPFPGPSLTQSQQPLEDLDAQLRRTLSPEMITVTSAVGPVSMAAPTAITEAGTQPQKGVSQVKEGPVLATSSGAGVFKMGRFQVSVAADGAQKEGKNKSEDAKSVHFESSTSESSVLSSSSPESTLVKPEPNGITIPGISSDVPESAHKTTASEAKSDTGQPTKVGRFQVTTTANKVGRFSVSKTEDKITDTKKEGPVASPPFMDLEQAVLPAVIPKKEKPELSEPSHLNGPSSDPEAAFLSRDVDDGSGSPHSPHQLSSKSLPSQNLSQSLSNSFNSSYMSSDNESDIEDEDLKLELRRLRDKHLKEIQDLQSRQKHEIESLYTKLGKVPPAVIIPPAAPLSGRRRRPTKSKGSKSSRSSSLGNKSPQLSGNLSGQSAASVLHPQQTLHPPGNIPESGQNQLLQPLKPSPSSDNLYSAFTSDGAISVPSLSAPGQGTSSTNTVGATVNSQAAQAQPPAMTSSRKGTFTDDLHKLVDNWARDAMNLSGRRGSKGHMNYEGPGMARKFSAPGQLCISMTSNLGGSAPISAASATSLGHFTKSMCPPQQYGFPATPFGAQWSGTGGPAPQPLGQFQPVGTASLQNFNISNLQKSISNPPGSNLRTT
T7 sequence (P28482 whole entry): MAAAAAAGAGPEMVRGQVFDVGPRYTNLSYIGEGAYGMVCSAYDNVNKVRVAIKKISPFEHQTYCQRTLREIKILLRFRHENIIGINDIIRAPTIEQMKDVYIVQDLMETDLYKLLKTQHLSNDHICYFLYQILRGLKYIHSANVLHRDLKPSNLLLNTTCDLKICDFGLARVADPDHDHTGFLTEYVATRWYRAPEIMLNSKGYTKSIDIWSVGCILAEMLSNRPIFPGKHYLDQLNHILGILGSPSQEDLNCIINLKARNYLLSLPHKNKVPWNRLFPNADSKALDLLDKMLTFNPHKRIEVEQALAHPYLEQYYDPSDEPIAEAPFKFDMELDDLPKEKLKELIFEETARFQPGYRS

SMILES: C=CC(=O)Nc1cccc(Nc2nc(Nc3ccc(OCCOC)c(F)c3)ncc2F)c1 [Compound 2]
- inhibition at 3 µM (CK1a1): -6.67%
- remaining activity at 3 µM (CK1a1; [1]): 108%
- remaining activity at 3 µM (CK1a1; [2]): 106%
- inhibition at 3 µM (PAK4): 2.45%
- remaining activity at 3 µM (PAK4; [1]): 98.7%
- remaining activity at 3 µM (PAK4; [2]): 96.4%
- inhibition at 3 µM (FGFR2): 63.4%
- remaining activity at 3 µM (FGFR2; [1]): 37.3%
- remaining activity at 3 µM (FGFR2; [2]): 36%
- inhibition at 3 µM (WNK1): -12.1%
- remaining activity at 3 µM (WNK1; [1]): 112%
- remaining activity at 3 µM (WNK1; [2]): 112%
- inhibition at 3 µM (DYRK1B): 20.2%
- remaining activity at 3 µM (DYRK1B; [1]): 78.6%
- remaining activity at 3 µM (DYRK1B; [2]): 80.9%
- inhibition at 3 µM (ULK2): -5.74%
- remaining activity at 3 µM (ULK2; [1]): 102%
- remaining activity at 3 µM (ULK2; [2]): 109%
- inhibition at 3 µM (ERK2/MAPK1): -4.25%
- remaining activity at 3 µM (ERK2/MAPK1; [1]): 106%
- remaining activity at 3 µM (ERK2/MAPK1; [2]): 103%
- inhibition at 3 µM (CDK1/cyclin E): -1.3%
- remaining activity at 3 µM (CDK1/cyclin E; [1]): 100%
- remaining activity at 3 µM (CDK1/cyclin E; [2]): 102%
- inhibition at 3 µM (FYN): 18.5%
- remaining activity at 3 µM (FYN; [1]): 81.1%
- remaining activity at 3 µM (FYN; [2]): 81.8%
- inhibition at 3 µM (TYK2): 52.6%
- remaining activity at 3 µM (TYK2; [1]): 48.2%
- remaining activity at 3 µM (TYK2; [2]): 46.6%
- inhibition at 3 µM (IR): 15.4%
- remaining activity at 3 µM (IR; [1]): 84.5%
- remaining activity at 3 µM (IR; [2]): 84.7%
